Results as given in patent US20130310436A1, “METHODS FOR PREDICTING RESPONSE TO BETA-BLOCKER THERAPY IN NON-ISCHEMIC HEART FAILURE PATIENTS” (The Regents of the University of Colorado, a body corporate, priority 2012, published 2013).

Columns and labels:
Type in all cases: in vivo, human
[1] = test system: patients with non-ischemic HFREF; test: BEST trial retrospective analysis: cumulative all-cause mortality, bucindolol vs placebo, by latent class subtype
Text: (§1) Methods: A total of 1121 patients with non-ischemic HFREF from the β-blocker Evaluation of Survival Trial were categorized according to 27 clinical features. See Tables 1 and 2 for the clinical features or information used. Latent class analysis was used to generate two latent class models, LCM A and B, Tables 3 and 4, respectively, to identify HFREF subtypes. LCM A consisted of features associated with HF pathogenesis, whereas LCM B consisted of markers of HF progression and severity. The Seattle Heart Failure Model (SHFM) Score was also calculated for all patients. Mortality, improvement in left ventricular ejection fraction (LVEF) defined as an increase in LVEF ≧5% and a final LVEF of […] after 12 months, and effect of bucindolol on both outcomes were compared across HFREF subtypes. Performance of models that included a combination of LCM subtypes and SHFM scores towards predicting mortality and LVEF response was estimated and subsequently validated using leave-one-out cross-validation and data from the Multicenter Oral Carvedilol Heart Failure Assessment (MOCHA) Trial.
(§2) Methods: All patients had New York Heart Association (NYHA) class III or IV HFREF (LVEF ≦35%) and were randomized in a double-blind fashion to either bucindolol (a β-blocker) or placebo. Patients were considered ischemic if they had ≧70% obstruction in a major epicardial coronary artery by angiography or evidence of prior myocardial infarction and excluded from this analysis. The primary endpoint was cumulative all-cause mortality. Secondary endpoints were all-cause mortality at one year and LVEF response defined as improvement in LVEF ≧5% with a final LVEF of ≧35% as measured using multi-gated acquisition scan (MUGA). […] They were randomized to placebo, low (6.25 mg bid), medium (12.5 mg bid), or high-dose (25 mg bid) carvedilol. Death and LVEF improvement as measured by MUGA were secondary endpoints in the original MOCHA analysis. Mortality data was only available up to one year of follow-up in MOCHA.
(§3) Association between latent class models and outcomes: Cox proportional-hazards models and the log-rank test were used to examine the associations between latent classes and cumulative all-cause mortality according to the intention-to-treat principle. These models were fit using the coxph and survfit functions from the survival library in the R statistical package. Logistic regression models were used for the one-year mortality and LVEF response outcomes. Interactions between latent classes and the treatment groups were used to estimate the response to treatment within each subtype.

[2] = test system: patients with non-ischemic HFREF; test: BEST trial retrospective analysis: all-cause mortality at one year, bucindolol vs placebo, by latent class subtype
Text: as §1
as §2, with “MOCHA. […]” for “MOCHA.”

[3] = test system: patients with non-ischemic HFREF; test: BEST trial retrospective analysis: LVEF response (improvement in LVEF ≧5% with final LVEF ≧35%, MUGA), bucindolol vs placebo, by latent class subtype
Text: as §1, §2, §3

CC(C)(Cc1c[nH]c2ccccc12)NCC(O)COc1ccccc1C#N (stereo not shown) [bucindolol]
reduction in cumulative all-cause mortality associated with bucindolol ([1]; LCM A subtype A1): no reduction
reduction in mortality with bucindolol ([1]; LCM A subtype A2 (discussion)): no significant reduction
all-cause mortality with bucindolol ([1]; LCM A subtype A6, only LCM A subtype (discussion)): decrease
absolute risk reduction, cumulative all-cause mortality ([1]; LCM A subtype A6, p=0.01): 10.2%
relative risk reduction, cumulative all-cause mortality ([1]; LCM A subtype A6, p=0.01): 42%
improvement in mortality associated with bucindolol ([1]; LCM B subtype B2, p=0.01): significant improvement
overall effect of bucindolol ([1]; all non-ischemic BEST patients (discussion)): not significant
patients in the bucindolol group died (cumulative all-cause mortality) ([1]; all non-ischemic BEST patients, 131/558): 23.5%
HR, cumulative all-cause mortality, bucindolol vs placebo ([1]; all non-ischemic BEST patients, 95% CI 0.65-1.04, p=0.1): 0.82
effect of bucindolol on one-year mortality ([2]; LCM A subtype A3, at 12 months, disappeared at subsequent follow-up): marginally significant difference
effect of bucindolol on one-year mortality ([2]; LCM A subtype A6, did not reach statistical significance): trended towards benefit
effect of bucindolol on one-year mortality ([2]; LCM B subtype B2, did not reach statistical significance): trended towards benefit
likelihood of LVEF response with bucindolol ([3]; LCM A subtype A1): no effect
likelihood of LVEF response with bucindolol ([3]; LCM A subtype A2): significant increase
absolute increase in likelihood of LVEF response ([3]; LCM A subtype A3): 24.3%
likelihood of LVEF response with bucindolol ([3]; LCM A subtype A3): significant increase
relative increase in likelihood of LVEF response ([3]; LCM A subtype A3): 156%
likelihood of LVEF response with bucindolol ([3]; LCM A subtype A5): significant increase
likelihood of LVEF response with bucindolol ([3]; LCM A subtype A6): significant increase
likelihood of improvement in LVEF ([3]; LCM B subtype B1): reached statistical significance
likelihood of improvement in LVEF ([3]; LCM B subtype B2): reached statistical significance
likelihood of improvement in LVEF ([3]; all LCM B subtypes, relative and absolute terms): increased comparably
